Values joined by “and” are separate entries in the source; they are usually repeats but may differ in a detail not shown here. Identical values can stand only once. Marks after values point to notes of the source that are not given here.
Assays:
[1] = system: human hepatoma cell line (HepG2); test: In vitro cytotoxicity, MTT assay, HepG2 cells; settings: MTT, 24 h incubation
Procedure: (§1) The HepG2 (ATCC HB-8065) was originally received from the New University of Lisbon, Portugal, and BGM received as a gift from the Federal University of Minas Gerais and originally purchased from Rio de Janeiro Cell Bank (BCRJ 0049). When confluent, the cells were washed with RPMI culture medium, then trypsinized, distributed in a flat-bottom 96-well plate (5×10^3 cells/well), and incubated for 18 h at 37°C for cell adherence as described elsewhere. The compound (20 µL) was added to each well at various concentrations (1-1000 µg/mL) and the plate incubated for 24 h in a 5% CO2 atmosphere at 37°C. MTT [3-(4,5-dimethylthiazol-2-yl)-2,5-diphenyltetrazolium bromide] (5 mg/mL; 20 µL/well) was added to evaluate mitochondrial viability, and the plates were incubated again for 3 h, under the same culture conditions. The supernatant was carefully removed, and 100 µL of DMSO were added with mixing to dissolve the formazan crystals formed. The optical density was determined at 570 and 630 nm (background) (SpectraMax 340PC 384, Molecular Devices). Cell viability was expressed as the percentage of the control absorbance of the untreated cells after subtracting the appropriate background. The minimum lethal dose for 50% of the cells (MLD50) was determined as previously described.

male Wistar rats [2] = test: Biochemical analysis of serum of rats treated with multiple doses; settings: rat serum; gavage four times a day for 4 days; PQ diphosphate 2.44 mg/kg free base, Phe-Ala-PQ 9.00 mg/kg; mean
Procedure: (§2) The biochemical, hematological and histopathological analyses were carried out in male Wistar rats (weighing 200–250 g). They were housed in wire cages, five animals per cage, with free access to food and water. The study protocol was approved by The Research Ethics Committee of the School of Pharmaceutical Sciences, UNESP, Araraquara (process 06/2009). […] After treatment with the drugs, the animals were decapitated for collection of blood and samples of liver and kidneys (preserved in 10% formaldehyde).
(§3) In biochemical analysis, aspartate aminotransferase (AST), alanine aminotransferase (ALT), gamma-glutamyltransferase (GGT), bilirubin, creatinine and urea kits were purchased from LabTest Diagnostica SA (Lagoa Santa,Minas Gerais, Brazil). Alkaline phosphatase (ALP) was assayed by the conversion of p-nitrophenyl phosphate to p-nitrophenol in a kinetic reaction, measured with a spectrophotometer at 405 nm. To determine the level of methemoglobin in relation to oxyhemoglobin, we used the method described by Naoum and collaborators. The blood was hemolyzed and the hemoglobin stabilized in 60 mM phosphate buffer, pH 6.8. The levels of methemoglobin and oxyhemoglobin were determined by spectrophotometric absorption at 630 and 540 nm. The total and differential white blood cell (WBC) counts were performed using a Neubauer chamber and blood smears, respectively. The hematocrit was determined using conventional method by microcapillary centrifugation.

male Wistar rats [3] = test: Histopathological evaluation of rat liver and kidney; settings: multiple doses
Procedure: as §2
The liver and kidney were removed from each rat to perform the histopathological evaluation. Tissue pieces were fixed in 10% formaldehyde and embedded in paraffin. Each organ was then cut into 4-µm thick sections and subjected to standard hematoxylin/eosin staining. Hepatic glycogen staining in sections was carried out using the standard periodic acid-Schiff (PAS) reaction, followed by hematoxylin counterstaining, and the periportal and centrilobular regions of the liver were analyzed according to Thoolen et al.. Five periportal regions and five centrilobular regions were photographed in each animal, for a total of 300 photographs, and these images were adjusted using Pixelmator software (2.2.1). Nuclear hepatocyte glycogen levels were classified as: A- PAS<50% of cells, B- PAS≥50% of cells and C- PAS-negative. Additionally, liver sections were examined for the occurrence of microvesicular fatty changes, as well as the kidney sections for inflammatory infiltration, reduction of Bowman's spaces and changes in renal tubules. Statistical analysis was performed in Graphpad Prism 5.0b. Data for each organ analysis were expressed qualitatively and quantitatively, and normal distribution was verified (D'Agostin and Person). t-tests and chi-square tests were performed, and non-parametric data were evaluated using the Mann-Whitney or Kruskal-Wallis test for pair wise comparisons of groups. The significance level was set at 5%.

in vitro = settings: human
Procedure: (§4) The hemolytic rate was calculated using 0.05% saponin as the positive control for hemolysis of human RBC, which was considered 100% [24], [25]. The diagnosis of G6PD deficiency was performed using a technique based on the principle that hemoglobin oxidized to methemoglobin, by the action of sodium nitrite, is catalyzed by an enzyme, in the presence of methylene blue [26]. […] All participants signed a written informed consent before blood collection. The consent was approved by the Ethics Committee of CEPEM.

male Wistar rats [4] = test: Hemogram of rats treated with multiple doses; settings: gavage four times a day for 4 days, PQ 2.44 mg/kg free base, Phe-Ala-PQ 9.00 mg/kg, mean (CI 95)
Procedure: as §2, §3

[5] = system: monkey kidney cell line (BGM); test: In vitro cytotoxicity, MTT assay, BGM cells; settings: MTT, 24 h incubation
Procedure: as §1

P. gallinaceum = test: Inhibition of P. gallinaceum sporogony in Aedes fluviatilis mosquitoes fed on infected, treated chickens; format: in vivo; settings: single oral dose 1.0 mg/kg (Phe-Ala-PQ: 0.19 mg/kg PQ); for Mean oocyts ±SD/ in times 4 h: chicken, mosquitoes fed 4 h after treatment
Procedure: One-week-old chicks (Gallus gallus domesticus) previously inoculated with 10^6 RBC infected with P. gallinaceum, had their parasitemia monitoried daily, by examining Giemsa-stained thin blood smears; they were used to feed the mosquitoes when reaching 2.8 – 3.8%. The A. fluviatilis mosquitoes were kept for 24 h without sugar in their diet, to improve their ability to take the blood meal from chickens. For each compound the same infected chicken was offered twice to feed clean mosquitoes (30 female mosquitoes per group), before treatment, (group 0 h). Drug treatment was immediately performed by gavage and the treated chicken was offered again to blood-feed another group of mosquitoes (test group) 4 h after treatment of the chicken with the drug. […] In each experiment, another non-treated P. gallinaceum-infected chick was used twice (time 0 h and 4 h later) to feed clean mosquitoes, serving as an internal control.
Seven days after the blood meal, the mosquitoes were dissected and their midgut was removed under a stereomicroscope (100x), stained with 0.5% mercurochrome, and examined under a light microscope (40x) for the oocyst count. […] Two criteria were used to evaluate drug activity: the total number of infected mosquitoes and the mean number of oocysts, based on the examination of 20 mosquitoes in each group.

In vitro hemolysis assay = settings: human
Procedure: as §4

[6] = Partition coefficient (log P) by HPLC method, OECD guideline
Procedure: A Waters Alliance HPLC system equipped with a UV-Vis 2487 detector was employed. The chromatographic analysis was performed on a Symmetry C18 HPLC column (4.6 mm×250 mm, 5 µm particle size) and the mobile phase was methanol:water (70∶30), with detection at 256 nm. A flow rate of 1.0 mL/min was used and 50-µL samples were injected into the chromatographic system. The run time was approximately 15 min. The analytical curve was constructed on the basis of the retention time of the standards (purchased from Sigma Aldrich, NJ, USA) butanone, acetanilide, phenol, phenacetin, benzene, toluene, chlorobenzene and thymol, dissolved in mobile phase at a concentration of 50 µg/mL. The substances were analyzed in triplicate and the average retention time for each standard was used. The capacity factor (k) was obtained by the equation [20]: k = (tR - t0) /t0, where tR is the retention time of the test substance and t0 the dead-time. The log k values were correlated with the partition coefficients of the standards for construction of the analytical curve. […] The coefficient of determination (r^2) was also calculated to evaluate the linearity of the analytical curve.

[7] = cited from earlier work

COc1cc(NC(C)CCCN)c2ncccc2c1 (centres unmarked) [PQ, Primaquine]
MDL50 (Mean±SD) HepG2 [1]: 180 µg/mL and 180 ± 24 µg/mL
ALP (male Wistar rats [2]): 125.6 U/L
ALT (male Wistar rats [2]): 91.81 ^a U/L
AST (male Wistar rats [2]): 64.99 ^a U/L
Creatinine (male Wistar rats [2]): 0.986 mg/dL and 0.986 ^a mg/dL
Direct bilirubin (male Wistar rats [2]): 0.228 mg/dL
GGT (male Wistar rats [2]): 22.88 ^a U/L
Total bilirubin (male Wistar rats [2]): 0.797 mg/dL and 0.797 ^a mg/dL
Urea (male Wistar rats [2]): 18.51 mg/dL
Liver glycogen: positive cells (<50%), periportal region (male Wistar rats [3]): decrease
Liver glycogen: PAS-positive cells (total), periportal region (male Wistar rats [3]; compared to the control group): more PAS-positive cells (total) compared to the control group
Histopathological analysis of the kidney (male Wistar rats [3]; hematoxylin/eosin): normal structures, with no alteration in the glomeruli and renal tubules
hemolysis at 31 µg/mL (in vitro): 0%
hemolysis at 62 µg/mL (in vitro): 0%
hemolysis at 1000 µg/mL (in vitro): 100%
Eosinophils Absolute (No. cells) (male Wistar rats [4]): 97 (43–151) No. cells
Eosinophils Relative (%) (male Wistar rats [4]): 2.10 (0.77–3.42) %
Hematocrit (male Wistar rats [4]): 46 (44–48) %
Leukocytes (male Wistar rats [4]): 4840 (3973–5706) /mm^3
Lymphocytes Absolute (No. cells) (male Wistar rats [4]): 4123 (3200–5046) No. cells
Lymphocytes Relative (%) (male Wistar rats [4]): 83.9 ^a (78.9–88.9) %
Methemoglobin (male Wistar rats [4]): 3.89 (3.39–4.40) %
Monocytes Absolute (No. cells) (male Wistar rats [4]): 96 ^a (52–140) No. cells
Monocytes Relative (%) (male Wistar rats [4]): 2.30 ^a (0.86–3.73) %
Neutrophils Band Absolute (No. cells) (male Wistar rats [4]): 6 (0–19) No. cells
Neutrophils Band Relative (%) (male Wistar rats [4]): 0.11 (0.00–0.36) %
Neutrophils Segmented Absolute (No. cells) (male Wistar rats [4]): 516 ^a (403–629) No. cells
Neutrophils Segmented Relative (%) (male Wistar rats [4]): 11.6 ^a (8.15–15.0) %
MDL50 (Mean±SD) BGM [5]: 263 µg/mL and 263 ± 4 µg/mL
Mean oocyts ±SD/ in times 4 h (P. gallinaceum): 2.1
Mean oocyts ±SD/ in times 4 h (P. gallinaceum; listed as PQ diphosphate): 2.1±4.3
Reduction in oocyst number, % (P. gallinaceum; 4 h vs 0 h): 96%
Sporogony inhibition, % (P. gallinaceum; 4 h vs 0 h): 50%
hemolysis at 125 µg/mL (In vitro hemolysis assay): 0%
hemolysis at 250 µg/mL (In vitro hemolysis assay): 50%
hemolysis at 500 µg/mL (In vitro hemolysis assay): 87.8%
chromatographic logP [6]: 2.1
plasma half-life [7]: ca. 6 h

Reference: PMC4136845, “Evaluation of Antimalarial Activity and Toxicity of a New Primaquine Prodrug” (PLoS ONE, 2014)
